Source: patent US5496697A, “Methods and apparatus for detecting the effect of cell affecting agents on living cells” (priority 1993, dated 1996)

Columns and labels:
[1] = target: T1, rat M1 muscarinic receptor (Rattus norvegicus, UniProt P08482); assay: metabolic rate of M1C-2 cells (B82 cells transfected with rat M1 muscarinic receptor); conditions: atropine alone, FIG. 28
T1 sequence (P08482 1-460): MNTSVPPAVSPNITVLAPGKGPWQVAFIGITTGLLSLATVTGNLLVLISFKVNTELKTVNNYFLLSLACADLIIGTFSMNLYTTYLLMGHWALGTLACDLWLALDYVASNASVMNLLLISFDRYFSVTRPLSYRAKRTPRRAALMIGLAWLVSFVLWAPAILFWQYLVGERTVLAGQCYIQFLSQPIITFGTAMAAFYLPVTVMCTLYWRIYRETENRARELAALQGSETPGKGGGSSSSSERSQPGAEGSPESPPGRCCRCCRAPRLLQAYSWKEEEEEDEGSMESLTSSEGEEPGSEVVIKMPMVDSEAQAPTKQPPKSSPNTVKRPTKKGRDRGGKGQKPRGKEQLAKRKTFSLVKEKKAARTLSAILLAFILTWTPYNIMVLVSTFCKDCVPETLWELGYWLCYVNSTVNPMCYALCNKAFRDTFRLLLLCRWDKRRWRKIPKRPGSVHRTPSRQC

[2] = tested on: vesicular stomatitis virus (VSV); assay type: cell-based; conditions: VSV-infected L cells, FIGS. 36-39
[3] = tested on: normal human keratinocytes; assay: metabolic rate of EGF-starved normal human keratinocytes; assay type: cell-based
Description: Normal human keratinocytes require epidermal growth factor (EGF) for proliferation without differentiation. Keratinocytes (from Clonetics, Inc.) were cultured in the absence of EGF for a period of 24 hours prior to the experiment. For the experiment, the keratinocytes were assembled into four flow chambers and the alternating stop-flow sequence was initiated with medium containing no EGF. At the time indicated by the arrow in FIG. 43, the syringes containing medium were changed on all four flow chambers. The second medium contained 5 ng/ml mouse EGF, or 1.25 μg/ml of a neutralizing rabbit anti-mouse-EGF polyclonal IgC, or both. A control with no EGF or IgC was also run. […] Addition of the anti-EGF antibody alone had no effect.
In a separate experiment, the growth medium for the normal human epidermal keratinocytes contained 10 ng/mL murine EGF, a substance found to be mitogenic for keratinocytes. […] It does show the same rising baseline, which probably indicates some combination of cell proliferation and adaptation to the environmental conditions in the flow chamber.
Stimulation of acidification rate was observable down to 0.1 ng/mL EGF. In a control experiment, the stimulation was abolished by a monoclonal antibody to EGF that is known to block receptor binding.

[4] = tested on: mouse and human fibroblasts; conditions: previously reported; cited from earlier work

CN1[C@@H]2CC[C@H]1C[C@@H](OC(=O)C(CO)c1ccccc1)C2 (stereo partly drawn) [Atropine]
effect on cells alone [1]: no significant effect

NC(=O)c1ncn([C@@H]2O[C@H](CO)[C@@H](O)[C@H]2O)n1 [ribavirin]
effect on VSV-induced change of host cell metabolism [2]: inhibition

EGF: epidermal growth factor (mouse EGF) (NSYPGCPSSYDGYCLNGGVCMHIESLDSYTCNCVIGYSGDRCQTRDLRWWELR; Epidermal growth factor; UniProt P01132 977-1029, looked up)
metabolic response of keratinocytes to EGF ([3]; 5 ng/ml mouse EGF, FIG. 43): metabolic burst | metabolic rate at the peak ([3]; 50 ng/mL EGF, FIG. 44): nearly doubled | time from peak to decay to a steadily rising baseline ([3]; 50 ng/mL EGF, FIG. 44): 15 min | time to peak of response ([3]; 50 ng/mL EGF, FIG. 44): ~ 15 min | time to rise in metabolic rate ([3]; 50 ng/mL EGF, FIG. 44): ≤ 5 min | lowest concentration with observable stimulation of acidification rate ([3]; EGF): 0.1 ng/mL | effect on glycolytic rate [4]: rapid increase in glycolytic rate
